Results published in paper PMC9098913, “In vitro reconstitution of Escherichia coli divisome activation” (Nature Communications, 2022).

Tested on: FtsZ filaments
Assay: Slope of linear regression FtsZ vs FtsA intensity (packing of FtsA below FtsZ filaments)
Assay type: biochemical, E. coli
Details: for Slope of linear regression: Fig. S2h
Source text: While fluorescence microscopy cannot resolve molecular assemblies of these small dimensions, a higher packing density of FtsA R286W below FtsZ filaments could explain the enhanced colocalization with FtsZ. To test this hypothesis, we analysed the pixel-by-pixel relationship between the fluorescence intensities of FtsZ and FtsA in dual-colour fluorescence time-lapse movies. […] At low FtsA concentrations, we found the slopes for both proteins to be similar.

FtsA WT: wild-type E. coli actin-homologue FtsA, membrane anchor of FtsZ
Slope of linear regression FtsZ vs FtsA (0.1 µM FtsA, mean): 0.64 | Slope of linear regression, mean of single experiment (0.1µM, replicate column 1): 0.68 | Slope of linear regression, mean of single experiment (0.1µM, replicate column 2): 0.37 | Slope of linear regression, mean of single experiment (0.1µM, replicate column 3): 0.74 | Slope of linear regression, mean of single experiment (0.1µM, replicate column 4): 0.70 | Slope of linear regression FtsZ vs FtsA (0.2 µM FtsA, mean): 0.45 | Slope of linear regression, mean of single experiment (0.2µM, replicate column 1): 0.40 | Slope of linear regression, mean of single experiment (0.2µM, replicate column 2): 0.56 | Slope of linear regression, mean of single experiment (0.2µM, replicate column 3): 0.40 | Slope of linear regression, mean of single experiment (0.4µM, replicate column 1): 0.0747 | Slope of linear regression, mean of single experiment (0.4µM, replicate column 2): 0.0547 | Slope of linear regression, mean of single experiment (0.4µM, replicate column 3): 0.49 | Slope of linear regression, mean of single experiment (0.4µM, replicate column 4): 0.31 | Slope of linear regression FtsZ vs FtsA (0.8 µM FtsA, mean): 0.17 | Slope of linear regression, mean of single experiment (0.8µM, replicate column 1): 0.16 | Slope of linear regression, mean of single experiment (0.8µM, replicate column 2): 0.15 | Slope of linear regression, mean of single experiment (0.8µM, replicate column 3): 0.23 | Slope of linear regression, mean of single experiment (0.8µM, replicate column 4): 0.13 | Slope of linear regression (+ FtsN, 0.10 µM, mean): 0.81 a.u. | Slope of linear regression (+ FtsN, 0.10 µM, replicate 1): 0.84 a.u. | Slope of linear regression (+ FtsN, 0.10 µM, replicate 2): 0.82 a.u. | Slope of linear regression (+ FtsN, 0.10 µM, replicate 3): 0.78 a.u. | Slope of linear regression (+ FtsN, 0.20 µM, mean): 0.65 a.u. | Slope of linear regression (+ FtsN, 0.20 µM, replicate 1): 0.62 a.u. | Slope of linear regression (+ FtsN, 0.20 µM, replicate 2): 0.61 a.u. | Slope of linear regression (+ FtsN, 0.20 µM, replicate 3): 0.72 a.u. | Slope of linear regression (+ FtsN, 0.40 µM, mean): 0.35 a.u. | Slope of linear regression (+ FtsN, 0.40 µM, replicate 1): 0.43 a.u. | Slope of linear regression (+ FtsN, 0.40 µM, replicate 2): 0.47 a.u. | Slope of linear regression (+ FtsN, 0.40 µM, replicate 3): 0.13 a.u. | Slope of linear regression (without FtsN, 0.10 µM, mean): 0.70 a.u. | Slope of linear regression (without FtsN, 0.10 µM, replicate 1): 0.52 a.u. | Slope of linear regression (without FtsN, 0.10 µM, replicate 2): 0.85 a.u. | Slope of linear regression (without FtsN, 0.10 µM, replicate 3): 0.71 a.u. | Slope of linear regression (without FtsN, 0.20 µM, mean): 0.59 a.u. | Slope of linear regression (without FtsN, 0.20 µM, replicate 1): 0.55 a.u. | Slope of linear regression (without FtsN, 0.20 µM, replicate 2): 0.56 a.u. | Slope of linear regression (without FtsN, 0.20 µM, replicate 3): 0.66 a.u. | Slope of linear regression (without FtsN, 0.40 µM, mean): 0.16 a.u. | Slope of linear regression (without FtsN, 0.40 µM, replicate 1): 0.24 a.u. | Slope of linear regression (without FtsN, 0.40 µM, replicate 2): 0.066 a.u. | Slope of linear regression (without FtsN, 0.40 µM, replicate 3): 0.18 a.u.

B1: FtsA R286W (protein)
chain: MIKATDRKLVVGLEIGTAKVAALVGEVLPDGMVNIIGVGSCPSRGMDKGGVNDLESVVKCVQRAIDQAELMADCQISSVYLALSGKHISCQNEIGMVPISEEEVTQEDVENVVHTAKSVRVRDEHRVLHVIPQEYAIDYQEGIKNPVGLSGVRMQAKVHLITCHNDMAKNIVKAVERCGLKVDQLIFAGLASSYSVLTEDERELGVCVVDIGGGTMDIAVYTGGALRHTKVIPYAGNVVTSDIAYAFGTPPSDAEAIKVRHGCALGSIVGKDESVEVPSVGGRPPWSLQRQTLAEVIEPRYTELLNLVNEEILQLQEKLRQQGVKHHLAAGIVLTGGAAQIEGLAACAQRVFHTQVRIGAPLNITGLTDYAQEPYYSTAVGLLHYGKESHLNGEAEVEKRVTASVGSWIKRLNSWLRKEF
modifications: Cy3 or Cy5 at the N-terminus in the labelled form (labelled CLEPTGG peptide conjugated to the 5xGly tag by sortagging); unlabelled protein also used; left off: TwinStrep-SUMO, N-terminal, cleaved | 5x
Slope of linear regression FtsZ vs FtsA (0.1 µM FtsA, mean): 0.43 | Slope of linear regression, mean of single experiment (0.1µM, replicate column 1): 0.46 | Slope of linear regression, mean of single experiment (0.1µM, replicate column 2): 0.49 | Slope of linear regression, mean of single experiment (0.1µM, replicate column 3): 0.39 | Slope of linear regression FtsZ vs FtsA (0.2 µM FtsA, mean): 0.60 | Slope of linear regression, mean of single experiment (0.2µM, replicate column 1): 0.53 | Slope of linear regression, mean of single experiment (0.2µM, replicate column 2): 0.81 | Slope of linear regression, mean of single experiment (0.2µM, replicate column 3): 0.58 | Slope of linear regression, mean of single experiment (0.4µM, replicate column 1): 0.63 | Slope of linear regression FtsZ vs FtsA (0.8 µM FtsA, mean): 0.72 | Slope of linear regression FtsZ vs FtsA (above 0.2 µM, remained constant): ~ 0.7
